Results published in US11896678B2, “Compositions and methods for treatment of peroxisome proliferator-activated receptor gamma (PPARG) activated cancer” (THE BROAD INSTITUTE, INC., priority 2017, dated 2024).
Values belong to the molecule of their own block, whether it stands above or below them. Ends that are not written are not given here.

Key:
5637 cells = experiment: Proliferation assay in PPARG-amplified 5637 cells; type: cell-based; settings: Homo sapiens; data not shown
Description: To determine if treatment of PPARG-activated bladder cancer cell lines with PPARG modulators impacted viability, a variety of compounds were tested in proliferation assays.

UM-UC-9 cells [1] = experiment: Direct cell counting dose-response proliferation assay; type: cell-based, human
Description: To determine whether PPARG modulators affect the proliferation and/or viability of PPARG-activated bladder cancer cell lines, a direct cell counting-based assay was performed. This assay likely avoids potential artifacts associated with the use of an ATP content-based assay, given that PPAR modulators are known to regulate cellular metabolic activity. […] These IC50 values align well with the calculated IC50s from both the cell-based reporter gene assay (FIG. 8A) and the biochemical corepressor assay (FIG. 8D).
(§1) Proliferation Assays: To enable cell-counting experiments, cell lines were transduced with a lentiviral vector encoding nuclear-targeted GFP, TagGFP2-H2B (Evrogen), and stable pools generated following selection for puromycin resistance. Cell lines were maintained for at least 7 days following selection prior to expansion and seeding into 96- or 384-well plates for further analysis. For kinetic proliferation assays, 96-well plates (n 1% 4 per condition) were imaged and counted every two hours using IncuCyte Zoom (Essen BioScience). Media and compounds were replaced approximately every 3-4 days. For endpoint assays to measure dose-response, cells were plated in 384-well plates, dosed with compound, and upon reaching approximately 70% to 90% confluence in control wells, cells were either counted using fluorescence imaging (Incu-Cyte Zoom) or incubated with CyQuant (Thermo Fisher) at the indicated time and plates were read with a fluorescent plate reader.

UM-UC-9 cells [2] = experiment: Kinetic proliferation assay (IncuCyte), percent of DMSO control; type: cell-based, human; settings: 100 nmol/L; DMSO control at 50% confluency
From the text: This assay was expanded to include an additional 8 representative bladder cancer cell lines, including cell lines with PPARG amplification, RXRA p.S427F mutation, activated gene signature, and control cell lines with low level expression of PPARG and target genes. […] Representative data for the UM-UC-9 cell line are shown in FIG. 6B, and is tabulated for the tested bladder cancer cell lines in Table 1. […] Similar results were obtained with these cell lines in parallel studies using clonogenic assays to quantify colony-forming ability (FIG. 10).
as §1, with “Cell lines were maintained for at least 7 days following selection prior to expansion and seeding into 96- or 384-well plates for further analysis.” left out, “Media and compounds were replaced approximately every 3-4 days.” left out

[3] = tested on: PPARG-activated bladder cancer cell lines; experiment: Proliferation assays in PPARG-activated bladder cancer cell lines; type: cell-based, human; settings: 100 nM-500 nM
Description: A panel of bladder cancer cell lines with PPARG modulators in colony formation assays was then tested (FIG. 10), kinetic proliferation assays (IncuCyte Zoom; Essen Bioscience) using cell lines treated with a single concentration of compound (100 nM-500 nM), and end-point dose-response assays (CellTiter Glo or CyQuant).
This assay was expanded to include an additional 8 representative bladder cancer cell lines, including cell lines with PPARG amplification, RXRA p.S427F mutation, activated gene signature, and control cell lines with low level expression of PPARG and target genes. […] Representative data for the UM-UC-9 cell line are shown in FIG. 6B, and is tabulated for the tested bladder cancer cell lines in Table 1. […] This significant (P<0.01) preferential sensitivity to PPARG inverse-agonists, but not antagonists, is maintained across all of the PPARG-activated cell lines in the panel, including the RXRA p.S427F cell line, HT-1197 (41), the PPARG-amplified cell lines, 5637 and UM-UC-9, and the PPARG activation gene signature cell lines Cal29, UM-UC-1, and RT112/84 (FIG. 12). […] Similar results were obtained with these cell lines in parallel studies using clonogenic assays to quantify colony-forming ability (FIG. 10).
as §1

[4] = tested on: PPARG-activated pancreatic and colorectal cancer cell lines; experiment: Kinetic proliferation assay in pancreatic and colorectal cancer cell lines; type: cell-based; settings: 500 nM
From the text: To enable cell-counting, cell lines were transduced with a lentiviral vector encoding nuclear-targeted GFP (TagGFP2-H2B), and stable pools generated following selection for puromycin-resistance. Cell lines were maintained for at least 7 days following selection prior to expansion and seeding into 96-well plates for further analysis. For kinetic proliferation assays, 96-well plates were imaged in phase-contrast and green fluorescence mode every two hours using IncuCyte Zoom (Essen BioScience, Ann Arbor MI). Using IncuCyte software, the number of fluorescent nuclei were counted to monitor quantitative changes in cell number over time. Media and compounds were replaced approximately every 3-4 days.
DMSO treatment was also included as a vehicle control.

[5] = biological target: T1, PPARG ligand-binding domain - SMRT/NCOR2 corepressor peptide (Homo sapiens, UniProt P37231); experiment: TR-FRET corepressor assay, SMRT/NCOR2 peptide; type: biochemical
T1 construct: purchased ThermoFisher Scientific
T1 sequence (P37231 238-503 limits assumed): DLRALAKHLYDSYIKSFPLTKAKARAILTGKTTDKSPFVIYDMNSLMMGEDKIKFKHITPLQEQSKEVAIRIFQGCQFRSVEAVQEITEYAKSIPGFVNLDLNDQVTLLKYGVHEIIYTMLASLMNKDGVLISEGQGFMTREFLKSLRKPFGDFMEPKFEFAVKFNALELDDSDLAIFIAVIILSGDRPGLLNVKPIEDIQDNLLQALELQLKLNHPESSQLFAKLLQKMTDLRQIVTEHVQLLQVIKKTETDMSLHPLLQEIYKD
Description: (§2) To evaluate inverse-agonism, a TR-FRET PPARG co-repressor assay (ThermoFisher) that measures recruitment of a fluorescent NCOR1 or NCOR2 corepressor peptide to the PPARG ligand-binding domain was used (ThermoFisher).
To determine effects on interactions between PPARG and coregulators, PPARG modulators were tested in two TR-FRET biochemical interaction assays for agonism and inverse-agonism. Agonism was quantitated using a coactivator assay, which measured the interaction between the PPARG ligand-binding domain and a fluorescently-labeled peptide from TRAP220/MED1. […] To evaluate inverse-agonism biochemically, ligand-dependent interactions were measured between PPARG ligand-binding domain and corepressor peptides from NCoR/NCOR1 and SMRT/NCOR2.

[6] = biological target: T2, PPARG ligand-binding domain - NCoR/NCOR1 corepressor peptide (Homo sapiens, UniProt P37231); experiment: TR-FRET corepressor assay, NCoR/NCOR1 peptide; type: biochemical; settings: data not shown
T2 construct: purchased ThermoFisher Scientific
T2 sequence (P37231 238-503 limits assumed): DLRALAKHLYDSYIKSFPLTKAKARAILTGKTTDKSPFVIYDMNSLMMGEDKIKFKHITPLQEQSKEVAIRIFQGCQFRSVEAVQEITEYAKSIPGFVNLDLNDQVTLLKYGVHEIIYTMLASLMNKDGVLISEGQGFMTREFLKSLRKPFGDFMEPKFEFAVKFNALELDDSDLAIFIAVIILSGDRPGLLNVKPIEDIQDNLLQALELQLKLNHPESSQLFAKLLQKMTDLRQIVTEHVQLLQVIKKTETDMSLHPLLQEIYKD
Description: as §2
In addition to the PPARG-NCOR2 interaction assay described above, interactions between PPARG and a peptide from the corepressor NCOR1 were measured.

[7] = biological target: T3, PPARG ligand-binding domain - TRAP220/MED1 coactivator peptide (Homo sapiens, UniProt P37231); experiment: TR-FRET coactivator assay, TRAP220/MED1 peptide; type: biochemical
T3 construct: purchased ThermoFisher Scientific
T3 sequence (P37231 238-503 limits assumed): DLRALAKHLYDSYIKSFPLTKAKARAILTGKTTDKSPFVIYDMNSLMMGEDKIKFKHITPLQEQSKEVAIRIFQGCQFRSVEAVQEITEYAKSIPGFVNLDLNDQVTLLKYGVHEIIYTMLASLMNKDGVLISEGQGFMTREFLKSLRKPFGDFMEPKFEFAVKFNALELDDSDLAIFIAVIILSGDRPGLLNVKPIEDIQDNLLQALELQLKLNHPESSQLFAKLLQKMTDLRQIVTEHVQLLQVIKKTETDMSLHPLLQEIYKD

bladder cancer = settings: rodents; cited from earlier work
[8] = biological target: Terbium-labeled PPARG ligand binding domain (PPARG-LBD) (Macaca mulatta (Rhesus macaque)) (UniProt O18924); experiment: TR-FRET PPARG-NCOR1 interaction assay; with GW9662 (data not shown)
[9] = biological target: Terbium-labeled PPARG ligand binding domain (PPARG-LBD) (Macaca mulatta (Rhesus macaque)) (UniProt O18924); experiment: TR-FRET PPARG-NCOR1 interaction assay; with SR10221 (data not shown)
[10] = biological target: Terbium-labeled PPARG ligand binding domain (PPARG-LBD) (Macaca mulatta (Rhesus macaque)) (UniProt O18924); experiment: TR-FRET PPARG-NCOR1 interaction assay; with T0070907 (data not shown)
[11] = biological target: Terbium-labeled PPARG ligand binding domain (PPARG-LBD) (Macaca mulatta (Rhesus macaque)) (UniProt O18924); experiment: TR-FRET corepressor assay, PPARG-LBD and SMRT/NCOR2 peptide; with antagonists GW9662 and SR2595
[12] = biological target: Terbium-labeled PPARG ligand binding domain (PPARG-LBD) (Macaca mulatta (Rhesus macaque)) (UniProt O18924); experiment: TR-FRET corepressor assay, PPARG-LBD and SMRT/NCOR2 peptide; with inverse-agonists T0070907 and SR10221
[13] = biological target: Terbium-labeled PPARG ligand binding domain (PPARG-LBD) (Macaca mulatta (Rhesus macaque)) (UniProt O18924); experiment: TR-FRET corepressor assay, PPARG-LBD and SMRT/NCOR2 peptide; with agonists rosiglitazone, tesaglitazar and GW9129 (so in the source)

induced signal [6]: less than 2 fold
Molecule: CC1=C2C=C(C(=O)N[C@@H](C)c3ccc(C(C)(C)C)cc3)C=CC2N(Cc2ccc(Cl)c(O[C@@H](C)C(=O)O)c2)C1C (stereo partly shown) [SR10221]
IC50 (5637 cells): 20 to 30 nM | effect on cell proliferation compared with DMSO control (UM-UC-9 cells [1]): significantly reduced proliferation | IC50 (UM-UC-9 cells [1]; Homo sapiens, UM-UC-9, read-out: calculated IC50, proliferation): 16 nM | reduction of proliferation relative to control (UM-UC-9 cells [2]): 80% | sensitivity of cell lines [3]: preferentially sensitive | sensitivity of cell lines [4]: preferentially sensitive | effect on PPARG-NCOR2 interaction [5]: induce interaction between PPARG and NCOR2

Molecule: CCCCCOc1cc2c(cc1-c1cc(/C=C/C(=O)O)ccc1O)C(C)(C)CCC2(C)C [UVI3003]
effect in coactivator assay [7]: minimal effect

Molecule: CCc1ccc(CCOc2ccc(CC3SC(=O)NC3=O)cc2)nc1 (stereo not shown) [pioglitazone]
carcinogenic effect, bladder cancer (bladder cancer): carcinogenic effect in rodents was also observed

fold induction of signal [8]: 2.5 fold | fold induction of signal [9]: < 2 fold | fold induction of signal [10]: 6 to 8 fold
Molecule: DPASNLGLEDIIRKALMGSFDDK (also: fluorescently labeled, site not given here) [fluorescently labeled NCoR1 ID2 corepressor peptide (NCoR/NCOR1)]

fold increase in signal [11]: 1.7 fold | fold increase in signal [12]: 3 to 6 fold | decrease in signal [13]: 50 to 60%
Molecule: HASTNMGLEAIIRKALMGKYDQW (also: fluorescein-labeled, site not given here) [fluorescein-labeled SMRT ID2 corepressor peptide (SMRT/NCOR2)]
